Assay results published in patent publication US20250002450A1, “CATIONIC STEROID COMPOUNDS, METHOD OF OBTAINING THEREOF, FORMULATIONS COMPRISING THEREOF AND THEIR USES” (UNIVERSIDADE DO PORTO, priority 2021, published 2025).
In brackets after ≈: the same amount, converted by molar mass.

Assays:
[1] = system: E. coli 2252 (COL-resistant); assay: Antibacterial MIC/MBC (broth microdilution); assay type: cell-based, Escherichia coli; conditions: Escherichia coli, E. coli 2252 (COL-resistant); for MBC: read-out: MBC; for MIC: read-out: MIC
Excerpt: (§1) Twelve reference bacterial strains and nine MDR clinically relevant bacterial strains were used in this study. Gram-negative bacteria comprised reference strains E. coli ATCC 25922, K. pneumoniae ATCC 13883, Salmonella enterica serovar Typhimurium CECT 443, P. aeruginosa ATCC 27853, A. baumannii ATCC 19606, C. jejuni ATCC 33560 (ATCC—American Type Culture Collection; CECT—Colección Espanola de Cultivos Tipo); clinical isolates E. coli SA/2, an extended-spectrum β-lactamase (ESBL)-producing strain and P. aeruginosa 33b, a pan-drug-resistant isolate; and animal isolates C. jejuni P5/4, a ciprofloxacin-resistant strain, C. jejuni 4432, C. jejuni 4433, C. jejuni 4448, and E. coli 2252, a COL-resistant strain [42]. Gram-positive strains included S. aureus ATCC 29213, E. faecalis ATCC 29212, S. pyogenes ATCC 19615, and environmental isolates methicillin-resistant S. aureus (MRSA) 66/1 [43], and VAN-resistant enterococci (VRE) E. faecalis B3/101 [44]. Gram-negative fish pathogens Yersinia ruckeri ATCC 29473, Listonella anguillarum ATCC 1924, and Tenacibaculum maritimum ATCC 43397 were also included.
(§2) Strains were kept in Trypto-Casein Soy agar (TSA—Biokar Diagnostics, Allone, Beauvais, France) slants and, before each assay, were sub-cultured in Mueller-Hinton agar (MHA—Biokar Diagnostics, Allone, Beauvais, France). Y. ruckeri ATCC 29473 and L. anguillarum ATCC 1924 were kept in Nutrient Agar (Condalab, Madrid, Spain) and T. maritimum ATCC 43397 was kept in TMM agar (Condalab, Madrid, Spain), and were sub-cultured in the respective culture media before each assay. For S. pyogenes ATCC 19615, CAMHB was supplemented with 3.75% lysed horse blood (LBH—Oxoid, Basingstoke, England), whereas for C. jejuni it was supplemented with 2.5% LHB. Colony-forming unit counts of the inoculum were conducted to determine the initial inoculum size (which should be approximately 5×10^5 CFU/mL). Sterility and growth controls were included in each assay. The 96-well U-shaped untreated polystyrene microtiter plates were incubated for 20 h at 37 degrees C. (42 degrees C. for C. jejuni, in a microaerophilic atmosphere) and the minimal inhibitory concentration (MIC) was determined as the lowest concentration of compound that prevented visible growth. The minimal bactericidal concentration (MBC) was determined by spreading 100 μL of the content of the wells with no visible growth on MH plates. The MBC was determined as the lowest concentration of compound that killed 99.9% of the initial inoculum after overnight incubation at 37 degrees C. Two independent assays were performed for reference and MDR strains.
(§3) An initial screening of the antibacterial activity of the compounds was performed by the Kirby-Bauer disk diffusion method, as recommended by the Clinical and Laboratory Standards Institute (CLSI). Briefly, sterile 6 mm blank paper disks (Oxoid, Basingstoke, England) impregnated with 15 μg of each compound were placed on inoculated MH agar plates. A blank disk with dimethylsulfoxide (DMSO) was used as a negative control. MH inoculated plates were incubated for 18-20 h at 37 degrees C. At the end of incubation, the inhibition halos where measured. The MIC was used to determine the antibacterial activity of each compound, in accordance with the recommendations of the CLSI. Two-fold serial dilutions of the compounds were prepared in Mueller-Hinton Broth 2 (MHB2—Sigma-Aldrich, St. Louis, MO, USA) within the concentration range of 0.062-64 μg/mL. CTX ranging between 0.031-16 μg/mL was used as a control. Sterility and growth controls were included in each assay. Purity checks and colony counts of the inoculum suspensions were also performed in order to ensure that the final inoculum density closely approximates the intended number (5×10^5 CFU/mL). The MIC was determined as the lowest concentration of compound that inhibited growth of the bacteria. The MBC was assessed by spreading 10 μL of culture collected from wells showing no visible growth on MH agar plates. […]

E. coli SA/2 (ESBL) = assay: Antibacterial MIC/MBC (broth microdilution); assay type: cell-based, Escherichia coli; conditions: Escherichia coli
Excerpt: as §1, §2, §3

S. aureus 66/1 (MRSA) = assay: Antibacterial MIC/MBC (broth microdilution); assay type: cell-based, Staphylococcus aureus; conditions: Staphylococcus aureus; for MBC: read-out: MBC; for MIC: read-out: MIC
Excerpt: as §1, §2, §3

P. aeruginosa 33b (PDR) = assay: Antibacterial MIC/MBC (broth microdilution); assay type: cell-based, Pseudomonas aeruginosa; conditions: Pseudomonas aeruginosa, P. aeruginosa 33b (PDR); for MBC: read-out: MBC; for MIC: read-out: MIC
Excerpt: as §1, §2, §3

[2] = system: Enterococcuss faecalis ATCC 29212; assay: Antibacterial MIC/MBC (broth microdilution); assay type: cell-based, Enterococcus faecalis; conditions: for MBC / MIC: Enterococcus faecalis, ATCC29212, Enterococcuss faecalis ATCC 29212; for MBC: read-out: MBC; for MIC: read-out: MIC; for antibacterial activity (in words): E. faecalis ATCC 29212
Excerpt: as §1, §2, §3

E. faecalis B3/101 (VRE) = assay: Antibacterial MIC/MBC (broth microdilution); assay type: cell-based, Enterococcus faecalis; conditions: for MBC / MIC: Enterococcus faecalis, E. faecalis B3/101 (VRE); for MBC: read-out: MBC; for MIC: read-out: MIC
Excerpt: as §1, §2, §3

[3] = system: Campylobacter jejuni ATCC 33560; assay: Antibacterial MIC/MBC (broth microdilution); assay type: cell-based; conditions: for MBC / MIC: ATCC33560, Campylobacter jejuni ATCC 33560; for MBC: read-out: MBC; for MIC: read-out: MIC
Excerpt: as §1, §2, §3

[4] = system: Listonella anguilarum ATCC 1924; assay: Antibacterial MIC/MBC (broth microdilution); assay type: cell-based; conditions: for MBC / MIC: Listonella anguilarum ATCC 1924; for MBC: read-out: MBC; for MIC: read-out: MIC
Excerpt: as §1, §2, §3

[5] = system: Klebsiella pneumoniae ATCC 13883; assay: Antibacterial MIC/MBC (broth microdilution); assay type: cell-based; conditions: ATCC13883, Klebsiella pneumoniae ATCC 13883; for MBC: read-out: MBC; for MIC: read-out: MIC
Excerpt: as §1, §2, §3

[6] = system: Yersinia ruckeri ATCC 29473; assay: Antibacterial MIC/MBC (broth microdilution); assay type: cell-based; conditions: for MBC: ATCC29473, read-out: MBC; for MIC: ATCC29473, read-out: MIC
Excerpt: as §1, §2, §3

[7] = system: Salmonella enterica serovar Typhimurium CECT 443; assay: Antibacterial MIC/MBC (broth microdilution); assay type: cell-based; conditions: for MBC: read-out: MBC; for MIC: read-out: MIC
Excerpt: as §1, §2, §3

[8] = system: Escherichia coli ATCC 25922; assay: Antibacterial MIC/MBC (broth microdilution); assay type: cell-based; conditions: ATCC25922, Escherichia coli ATCC 25922; for MBC: read-out: MBC; for MIC: read-out: MIC
Excerpt: as §1, §2, §3

[9] = system: Staphylococcus aureus ATCC 29213; assay: Antibacterial MIC/MBC (broth microdilution); assay type: cell-based; conditions: for MBC: ATCC29213, read-out: MBC; for MIC: ATCC29213, read-out: MIC
Excerpt: as §1, §2, §3

[10] = system: Tenacibaculum maritimum ATCC 43397; assay: Antibacterial disk diffusion; assay type: cell-based; conditions: Tenacibaculum maritimum ATCC 43397, footnote *
Excerpt: as §1, §2, §3

[11] = system: Streptococcuss pyogenes ATCC 19615; assay: Antibacterial MIC/MBC (broth microdilution); assay type: cell-based, Streptococcus pyogenes; conditions: for MBC / MIC: Streptococcus pyogenes, ATCC19615, Streptococcuss pyogenes ATCC 19615; for MBC: read-out: MBC; for MIC: read-out: MIC
Excerpt: as §1, §2, §3

| SMILES | MBC [1] | MIC [1] | MBC (E. coli SA/2 (ESBL)) | MIC (E. coli SA/2 (ESBL)) | MBC (S. aureus 66/1 (MRSA)) | MIC (S. aureus 66/1 (MRSA)) | MBC (P. aeruginosa 33b (PDR)) | MIC (P. aeruginosa 33b (PDR)) | MBC [2] | MIC [2] | MBC (E. faecalis B3/101 (VRE)) | MIC (E. faecalis B3/101 (VRE)) | MBC [3] | MIC [3] | MBC [4] | MIC [4] | MBC [5] | MIC [5] | MBC [6] | MIC [6] | further results |
| --- | --- | --- | --- | --- | --- | --- | --- | --- | --- | --- | --- | --- | --- | --- | --- | --- | --- | --- | --- | --- | --- |
| C[C@H](CCC(=O)N1CCN(C(=O)OC(C)(C)C)CC1)[C@H]1CC[C@H]2[C@@H]3CC[C@@H]4C[C@H](O)CC[C@]4(C)[C@H]3C[C@H](O)[C@]12C [Compound 5, tert-butyl 4-((R)-4-((3R,5R,8R,9S,10S,12S,13R,14S,17R)-3,12-dihydroxy-10,13-dimethylhexadecahydro-1H-cyclopenta[a]phenanthren-17-yl)pentanoyl)piperazine-1-carboxylate] | > 64 µg/mL | > 64 µg/mL | > 64 µg/mL | > 64 µg/mL | > 64 µg/mL | 64 µg/mL (≈ 114 µM) | > 64 µg/mL | > 64 µg/mL | > 64 µg/mL | > 64 µg/mL | > 64 µg/mL | > 64 µg/mL | > 64 µg/mL | > 64 µg/mL | > 64 µg/mL | > 64 µg/mL | > 64 µg/mL | > 64 µg/mL | > 64 µg/mL | > 64 µg/mL | MBC [7]: > 64 µg/mL; MIC [7]: > 64 µg/mL; MBC [8]: > 64 µg/mL; MIC [8]: > 64 µg/mL; MBC [9]: > 64 µg/mL; MIC [9]: 16 µg/mL (≈ 28.5 µM); Inhibition zone diameter (disk diffusion) [10]: 10 mm; MBC [11]: > 64 µg/mL; MIC [11]: > 64 µg/mL |
| C[C@H](CCC(=O)N1CCCCC1)[C@H]1CC[C@H]2[C@@H]3CC[C@@H]4C[C@H](O)CC[C@]4(C)[C@H]3C[C@H](O)[C@]12C [Compound 2, (R)-4-((3R,5R,8R,9S,10S,12S,13R,14S,17R)-3,12-dihydroxy-10,13-dimethylhexadecahydro-1H-cyclopenta[a]phenanthren-17-yl)-1-(piperidin-1-yl) pentan-1-one] | > 64 µg/mL | > 64 µg/mL | > 64 µg/mL | > 64 µg/mL | > 64 µg/mL | 32 µg/mL (≈ 69.6 µM) | > 64 µg/mL | > 64 µg/mL | > 64 µg/mL | 32 µg/mL (≈ 69.6 µM) | > 64 µg/mL | > 64 µg/mL | 64 µg/mL (≈ 139 µM) | 64 µg/mL (≈ 139 µM) | > 64 µg/mL | > 64 µg/mL | > 64 µg/mL | > 64 µg/mL | > 64 µg/mL | > 64 µg/mL | antibacterial activity (in words) [2]: exhibited antimicrobial activity; antibacterial activity (in words) ([3]; C. jejuni ATCC 33560): showed antimicrobial activity; MBC [7]: > 64 µg/mL; MIC [7]: > 64 µg/mL; MBC [8]: > 64 µg/mL; MIC [8]: > 64 µg/mL; MBC [9]: > 64 µg/mL; MIC [9]: 32 µg/mL (≈ 69.6 µM); Inhibition zone diameter (disk diffusion) [10]: 18 mm; antibacterial activity (in words) ([11]; S. pyogenes ATCC 19615): active; MBC [11]: 32 µg/mL (≈ 69.6 µM); MIC [11]: 32 µg/mL (≈ 69.6 µM) |
| C[C@H](CCC(=O)N1CCN(C(=O)CC[C@H](C)[C@@H]2CC[C@@H]3[C@H]4CC[C@H]5C[C@@H](O)CC[C@@]5(C)[C@@H]4C[C@@H](O)[C@]32C)CC1)[C@H]1CC[C@H]2[C@@H]3CC[C@@H]4C[C@H](O)CC[C@]4(C)[C@H]3C[C@H](O)[C@]12C [Compound 4, (R)-4-((3R,5R,8R,9S,10S,12S,13R,14S,17R)-3,12-dihydroxy-10,13-dimethylhexadecahydro-1H-cyclopenta[a]phenanthren-17-yl)-1-(4-((S)-4-((3S,5S,8S,9R,10R,12R,13S,14R,17S)-3,12-dihydroxy-10,13-dimethylhexadecahydro-1H-cyclopenta[a]phenanthren-17-yl)pentanoyl)piperazin-1-yl) pentan-1-one] | > 64 µg/mL | > 64 µg/mL | > 64 µg/mL | > 64 µg/mL | > 64 µg/mL | 64 µg/mL (≈ 76.6 µM) | > 64 µg/mL | > 64 µg/mL | 64 µg/mL (≈ 76.6 µM) | 64 µg/mL (≈ 76.6 µM) | > 64 µg/mL | 64 µg/mL (≈ 76.6 µM) | > 64 µg/mL | > 64 µg/mL | 32 µg/mL (≈ 38.3 µM) | 32 µg/mL (≈ 38.3 µM) | > 64 µg/mL | > 64 µg/mL | 64 µg/mL (≈ 76.6 µM) | 64 µg/mL (≈ 76.6 µM) | antibacterial activity (in words) [2]: exhibited antimicrobial activity; antibacterial activity (in words) (E. faecalis B3/101 (VRE); E. faecalis B3/101): displayed the same effect; antibacterial activity (in words) ([4]; Listonella anguilarum): active; antibacterial activity (in words) [6]: displayed antibacterial activity; antibacterial activity (in words) [7]: exhibited antimicrobial activity; MBC [7]: 64 µg/mL (≈ 76.6 µM); MIC [7]: 64 µg/mL (≈ 76.6 µM); MBC [8]: > 64 µg/mL; MIC [8]: > 64 µg/mL; MBC [9]: > 64 µg/mL; MIC [9]: 64 µg/mL (≈ 76.6 µM); Inhibition zone diameter (disk diffusion) [10]: 10 mm; MBC [11]: > 64 µg/mL; MIC [11]: > 64 µg/mL |
